# Measurements from patent US12187717B2, “Compound and use thereof in treating autoimmune diseases” (PARENCHYMA BIOTECH INC., priority 2022, dated 2025).
# How the values were obtained:
# CYP1A1 = experiment: Induction of CYP1A1 protein expression in HepG2 (7-ethoxyresorufin/resorufin); type: cell-based, Human; conditions: HepG2, 1 μM, 24 hours, vs control (vehicle)
# Procedure: After recovering HepG2 under culture in DMEM-fetal bovine serum (FBS) 10% medium and then confirming that the survival rate is 97% or more through trypan blue staining, the recovered product was centrifuged at a speed of 1200 rpm for 5 minutes at room temperature, and the cells were prepared by resuspending them in DMEM-fetal calf serum 10% medium at 1.5×10^5 cells/ml.
# Thereafter, the cells were dispensed onto a 96-well plate by 200 μl, and each plate was treated with 3 μl of Compounds 6, 21, 32 and 39 at a concentration of 1 μM diluted in DMEM medium, and then cultured in a cell incubator (5% CO2 incubator) for 24 hours. As a control, 3 μl of 0.05% dimethylsulfoxide (DMSO)/DMEM medium was used for treatment.
# After 24 hours, the medium of the plate was discarded, washed with dPBS, treated with 100 μl of 2 μM 7-ethoxyresorufin, and cultured in a cell incubator (5% CO2 incubator) for 30 minutes. After 30 minutes, each 75 μl of fluorescamine (150 μg/ml) was treated, then resorufine excitation was measured at 535 nm and emission at 590 nm. The standard curve was measured and used with 0 to 50 pmol of resorufin solution.
# After measurement, all solutions were removed, followed by treating the same with 25 μl of 0.5 M sodium hydroxide (NaOH), the cells were scraped and reacted in a shaker at room temperature for 15 minutes.
# After 15 minutes, protein was quantified using a Bradford method, and a value was obtained using a calculation formula (sample resorufin amount/sample protein amount), and then one (1) fold was set using the control.
# [1] = tested on: colitis-associated colorectal cancer (CA-CRC); experiment: AOM/DSS colorectal cancer model, preventive administration; type: in vivo, C57BL/6 mice; conditions: 10 mg/kg oral, 7th to 20th days (prevention)
# Procedure: AOM (Sigma Aldrich, Cat No. A5486) was diluted with physiological saline so as to be a concentration of 10 mg/kg, and then administered intraperitoneally to C57BL/6 mice (8 weeks old, female, 18±2 g) by […] for a total of 3 times at an interval of 7 days (Experiment day 0, 7, 14th). On the 7th day of the experiment, a 1.5% DSS solution prepared by dissolving 1.5% DSS in sterile distilled water was given for drinking to the mice for 7 days. Further, the 1.5% DSS solution was changed at an interval of 2 days. Sterile distilled water was provided for drinking from the 8th day of the experiment. In the compound 6 administration group according to an embodiment of the present invention, 10 mg/kg of Compound 6 per mouse was completely dissolved in an ethanol-Cremophor EL mixture corresponding to 7.5% (v/v) of the administered dose, and then, was diluted in phosphate buffered saline to prepare the final ethanol:Cremophor EL:phosphate buffered saline (0.375:0.375:9.25, v/v/v), followed by oral administration with 200 μl of the prepared solution. In order to confirm the preventive effect, Compound 6 was administered for a total of 14 times from the 7th to the 20th days of the experiment.
# [2] = tested on: colitis-associated colorectal cancer (CA-CRC); experiment: AOM/DSS colorectal cancer model, therapeutic administration; type: in vivo, C57BL/6 mice; conditions: 10 mg/kg oral, 50th to 63rd days (treatment)
# Procedure: AOM (Sigma Aldrich, Cat No. A5486) was diluted with physiological saline so as to be a concentration of 10 mg/kg, and then administered intraperitoneally to C57BL/6 mice (8 weeks old, female, 18±2 g) by […] for a total of 3 times at an interval of 7 days (Experiment day 0, 7, 14th). On the 7th day of the experiment, a 1.5% DSS solution prepared by dissolving 1.5% DSS in sterile distilled water was given for drinking to the mice for 7 days. Further, the 1.5% DSS solution was changed at an interval of 2 days. Sterile distilled water was provided for drinking from the 8th day of the experiment. In the compound 6 administration group according to an embodiment of the present invention, 10 mg/kg of Compound 6 per mouse was completely dissolved in an ethanol-Cremophor EL mixture corresponding to 7.5% (v/v) of the administered dose, and then, was diluted in phosphate buffered saline to prepare the final ethanol:Cremophor EL:phosphate buffered saline (0.375:0.375:9.25, v/v/v), followed by oral administration with 200 μl of the prepared solution. In order to confirm the preventive effect, Compound 6 was administered for a total of 14 times from the 7th to the 20th days of the experiment. The effects of Compound 6 according to an embodiment of the present invention on treating colon cancer was confirmed. From the 50th to the 63rd days of the experiment, DSS was administered on the 7th and 14th days after AOM administration to the mice to induce colon cancer, and Compound 6 was administered 14 times from the 50th to the 63rd days. […] That is, it was confirmed that Compound 6 was effective in treating colon cancer (FIGS. 13 and 14). Therefore, it was confirmed that Compound 6 can be used as an effective preventive and therapeutic agent for colon cancer.
# neutrophilic asthma = experiment: Neutrophilic asthma model (LPS/OVA); type: in vivo, C57BL/6 mice; conditions: 10 mg/kg oral daily, 27th to 36th days, compared to solvent control
# Procedure: Sensitization was induced in C57BL/6 mice (7 weeks old, female) by intranasally administering 10 μg of LPS (lipopolysaccharide, Sigma Aldrich, Cat No. L2630) and 75 μg of OVA (Ovalbumin, Sigma Aldrich, Cat No. A5503) diluted in phosphate buffered saline (20 μl in total) on the 0th, 1st, 2nd and 7th days of the experiment. From the 14th day of the experiment, 50 μg of OVA diluted in phosphate buffered saline was challenged by intranasal administration for a total of 8 times at an interval of 2 days a week until the 36th day. The intranasal administration was performed after anesthesia using an isoflurane inhalation anesthetic. In the compound 6 administration group according to an embodiment of the present invention, 10 mg/kg of Compound 6 per mouse was completely dissolved in an ethanol-Cremophor EL mixture corresponding to 7.5% (v/v) of the administered dose, and then, was diluted in phosphate buffered saline to prepare the final ethanol:Cremophor EL:phosphate buffered saline (0.375:0.375:9.25, v/v/v), followed by oral administration with 200 μl of the prepared solution daily for a total of 10 times from the 27th to the 36th days of the experiment.
compound,measurement,setting,value
"O=C(Cc1c[nH]c2ccc(Cl)cc12)Nc1nc2ccc(N3CCOCC3)cc2s1 [Compound 6, 2-(5-chloro-1H-indol-3-yl)-N-(6-morpholinobenzo[d]thiazol-2-yl)acetamide]",CYP1A1 protein expression level,CYP1A1,significantly higher
same,body weight,[1]; after 70 days,increase in the body weight similar to that of normal mice
same,number of tumors,[1]; vs control,significantly smaller
same,size of tumors,[1]; vs control,significantly smaller
same,body weight,[2]; after 70 days,increase in the body weight similar to that of normal mice
same,number of tumors,[2]; vs control,significantly smaller
same,size of tumors,[2]; vs control,significantly smaller
same,number of neutrophils in the bronchoalveolar lavage (BAL),neutrophilic asthma,significantly decreased
